Reference: patent US20260115346A1, “METHOD AND DEVICE FOR DI[…]/OR S[…]” (SCHWING TECHNOLOGIES GMBH, priority 2022, published 2026)

Columns and labels:
[1] = test system: human patellar tendon allografts; conditions: in vitro study; cited from earlier work
[2] = test system: spores of the bacterium Geobacillus stearothermophilis; assay: Validation tests for disinfection of laboratory utensils dripped with spore suspension SAL 10^6; type: cell-based, Geobacillus stearothermophilus; conditions: for Biological result #not sterile/#tested: PES in solution 4%
[3] = test system: spores of the bacterium Geobacillus stearothermophilis; assay: Validation tests for disinfection of spore strips SAL 10^5; type: cell-based, Geobacillus stearothermophilus; conditions: for Biological result #not sterile/#tested: 50-55° C.
[4] = test system: germs; assay: Disinfection and sterilization process on various objects, number of germs after treatment; conditions: 55° C., 20 mbar; for Number of germs/m^3 after disinfection: 1.5 g/m^3 PES, 15 min; for Number of germs/m^3 after sterilization: 4 g/m^3 PES, 30 min
Protocol: Various objects were treated with the method according to the invention in order to disinfect and sterilize them.
The following process parameters were used in the disinfection process:
The following process parameters were used in the sterilization process: […]

[5] = object: Mobile electronic display device

SMILES: CC(=O)OO [PES, peracetic acid]
- cytotoxic or pro-inflammatory effect [1]: no cytotoxic or pro-inflammatory effect
- Biological result #not sterile/#tested ([2]; test 5, 1.9 g/m^3 PES in process chamber, 120 min, growth after seven days): 0/4
- Biological result #not sterile/#tested ([2]; test 7, 1.9 g/m^3 PES in process chamber, 60 min, growth after seven days): 0/4
- Biological result #not sterile/#tested ([2]; test 8, 1.9 g/m^3 PES in process chamber, 45 min, growth after seven days): 0/4
- Biological result #not sterile/#tested ([2]; test 12, 1.9 g/m^3 PES in process chamber, 15 min, growth after seven days): 0/4
- Biological result #not sterile/#tested ([2]; test 13, 1.9 g/m^3 PES in process chamber, 10 min, growth after seven days): 0/4
- Biological result #not sterile/#tested ([2]; test 14, 1.9 g/m^3 PES in process chamber, 5 min, growth after seven days): 0/4
- Biological result #not sterile/#tested ([2]; test 15, 1.7 g/m^3 PES in process chamber, 20 min, growth after seven days): 0/4
- Biological result #not sterile/#tested ([2]; test 16, 1.7 g/m^3 PES in process chamber, 15 min, growth after seven days): 0/4
- Biological result #not sterile/#tested ([2]; test 19, 1.3 g/m^3 PES in process chamber, 20 min, growth after seven days): 0/4
- Biological result #not sterile/#tested ([2]; test 20, 1.3 g/m^3 PES in process chamber, 15 min, growth after seven days): 0/4
- Biological result #not sterile/#tested ([2]; test 21, 0.94 g/m^3 PES in process chamber, 60 min, growth after seven days): 0/4
- Biological result #not sterile/#tested ([2]; test 22, 0.94 g/m^3 PES in process chamber, 40 min, growth after seven days): 0/4
- Biological result #not sterile/#tested ([2]; test 23, 0.94 g/m^3 PES in process chamber, 30 min, not sterile: pipette): (pipette) 1/8
- Biological result #not sterile/#tested ([2]; test 24, 0.94 g/m^3 PES in process chamber, 20 min, growth after seven days): 0/8
- Biological result #not sterile/#tested ([2]; test 25, 0.94 g/m^3 PES in process chamber, 15 min, not sterile: pipette): (pipette) 1/4
- Biological result #not sterile/#tested ([2]; test 26, 0.94 g/m^3 PES in process chamber, 10 min, growth after seven days): 0/4
- Biological result #not sterile/#tested ([2]; test 27, 0.94 g/m^3 PES in process chamber, 5 min, not sterile: pipette): (pipette) 1/4
- Biological result #not sterile/#tested ([2]; test 28, 0.47 g/m^3 PES in process chamber, 60 min, growth after seven days): 0/4
- Biological result #not sterile/#tested ([2]; test 29, 0.47 g/m^3 PES in process chamber, 30 min, growth after seven days): 0/4
- Biological result #not sterile/#tested ([2]; test 30, 0.47 g/m^3 PES in process chamber, 15 min, not sterile: Eppi): (Eppi) 1/4
- Biological result #not sterile/#tested ([2]; test 31, 0.47 g/m^3 PES in process chamber, 10 min, not sterile: pipette): (pipette) 1/4
- Biological result #not sterile/#tested ([2]; test 32, 0.47 g/m^3 PES in process chamber, 5 min, not sterile: mask, pipette): (mask, pipette) 2/4
- growth of the spores after seven days in nutrient solution ([2]; various experiments, relatively low PES concentration in the process chamber, short process duration): spore growth was observed after seven days
- subsequent growth or multiplication of the spores ([3]; all the spore strips tested at different PES concentrations and different process times): No subsequent growth or multiplication of the spores could be detected
- Biological result #not sterile/#tested ([3]; test 1, PES in solution 6%, 3 g/m^3 PES in process chamber, 240 min): 0/2
- Biological result #not sterile/#tested ([3]; test 2, PES in solution 6%, 3 g/m^3 PES in process chamber, 120 min): 0/1
- Biological result #not sterile/#tested ([3]; test 3, PES in solution 6%, 1.7 g/m^3 PES in process chamber, 150 min): 0/2
- Biological result #not sterile/#tested ([3]; test 4, PES in solution 4%, 2 g/m^3 PES in process chamber, 120 min): 0/1
- Biological result #not sterile/#tested ([3]; test 5, PES in solution 4%, 1.9 g/m^3 PES in process chamber, 120 min): 0/2
- Biological result #not sterile/#tested ([3]; test 6, PES in solution 4%, 1.9 g/m^3 PES in process chamber, 90 min): 0/2
- Biological result #not sterile/#tested ([3]; test 7, PES in solution 4%, 1.9 g/m^3 PES in process chamber, 60 min): 0/4
- Biological result #not sterile/#tested ([3]; test 8, PES in solution 4%, 1.9 g/m^3 PES in process chamber, 45 min): 0/1
- Biological result #not sterile/#tested ([3]; test 9, PES in solution 4%, 1.9 g/m^3 PES in process chamber, 40 min): 0/2
- Biological result #not sterile/#tested ([3]; test 10, PES in solution 4%, 1.9 g/m^3 PES in process chamber, 30 min): 0/2
- Biological result #not sterile/#tested ([3]; test 11, PES in solution 4%, 1.9 g/m^3 PES in process chamber, 20 min): 0/2
- Biological result #not sterile/#tested ([3]; test 12, PES in solution 4%, 1.9 g/m^3 PES in process chamber, 15 min): 0/1
- Biological result #not sterile/#tested ([3]; test 13, PES in solution 4%, 1.9 g/m^3 PES in process chamber, 10 min): 0/1
- Biological result #not sterile/#tested ([3]; test 14, PES in solution 4%, 1.9 g/m^3 PES in process chamber, 5 min): 0/1
- Biological result #not sterile/#tested ([3]; test 15, PES in solution 4%, 1.7 g/m^3 PES in process chamber, 20 min): 0/1
- Biological result #not sterile/#tested ([3]; test 16, PES in solution 4%, 1.7 g/m^3 PES in process chamber, 15 min): 0/1
- Biological result #not sterile/#tested ([3]; test 17, PES in solution 4%, 1.5 g/m^3 PES in process chamber, 240 min): 0/2
- Biological result #not sterile/#tested ([3]; test 18, PES in solution 4%, 1.5 g/m^3 PES in process chamber, 150 min): 0/2
- Biological result #not sterile/#tested ([3]; test 19, PES in solution 4%, 1.3 g/m^3 PES in process chamber, 20 min): 0/1
- Biological result #not sterile/#tested ([3]; test 20, PES in solution 4%, 1.3 g/m^3 PES in process chamber, 15 min): 0/1
- Biological result #not sterile/#tested ([3]; test 21, PES in solution 4%, 0.94 g/m^3 PES in process chamber, 60 min): 0/5
- Biological result #not sterile/#tested ([3]; test 22, PES in solution 4%, 0.94 g/m^3 PES in process chamber, 40 min): 0/1
- Biological result #not sterile/#tested ([3]; test 23, PES in solution 4%, 0.94 g/m^3 PES in process chamber, 30 min): 0/2
- Biological result #not sterile/#tested ([3]; test 24, PES in solution 4%, 0.94 g/m^3 PES in process chamber, 20 min): 0/2
- Biological result #not sterile/#tested ([3]; test 25, PES in solution 4%, 0.94 g/m^3 PES in process chamber, 15 min): 0/1
- Biological result #not sterile/#tested ([3]; test 26, PES in solution 4%, 0.94 g/m^3 PES in process chamber, 10 min): 0/1
- Biological result #not sterile/#tested ([3]; test 27, PES in solution 4%, 0.94 g/m^3 PES in process chamber, 5 min): 0/1
- Biological result #not sterile/#tested ([3]; test 28, PES in solution 4%, 0.47 g/m^3 PES in process chamber, 60 min): 0/1
- Biological result #not sterile/#tested ([3]; test 29, PES in solution 4%, 0.47 g/m^3 PES in process chamber, 30 min): 0/1
- Biological result #not sterile/#tested ([3]; test 30, PES in solution 4%, 0.47 g/m^3 PES in process chamber, 15 min): 0/1
- Biological result #not sterile/#tested ([3]; test 31, PES in solution 4%, 0.47 g/m^3 PES in process chamber, 10 min): 0/1
- Biological result #not sterile/#tested ([3]; test 32, PES in solution 4%, 0.47 g/m^3 PES in process chamber, 5 min): 0/1
- Number of germs/m^3 after disinfection ([4]; object: FFP mask): 1220 germs/m^3
- Number of germs/m^3 after sterilization ([4]; object: FFP mask): germ-free
- Number of germs/m^3 after disinfection ([4]; object: Infusomat): 1160 germs/m^3
- Number of germs/m^3 after sterilization ([4]; object: Infusomat): germ-free
- Number of germs/m^3 after disinfection ([4]; object: MNS): 870 germs/m^3
- Number of germs/m^3 after sterilization ([4]; object: MNS): germ-free
- Number of germs/m^3 after disinfection [4, 5]: 430 germs/m^3
- Number of germs/m^3 after sterilization [4, 5]: germ-free
- Number of germs/m^3 after disinfection ([4]; object: Surgical clogs): 1370 germs/m^3
- Number of germs/m^3 after sterilization ([4]; object: Surgical clogs): germ-free
- Number of germs/m^3 after disinfection ([4]; object: blower filter unit): 1740 germs/m^3
- Number of germs/m^3 after sterilization ([4]; object: blower filter unit): germ-free
- Number of germs/m^3 after disinfection ([4]; object: disposable gloves): 920 germs/m^3
- Number of germs/m^3 after sterilization ([4]; object: disposable gloves): germ-free
- Number of germs/m^3 after disinfection ([4]; object: protective overalls): 270 germs/m^3
- Number of germs/m^3 after sterilization ([4]; object: protective overalls): germ-free
- Number of germs/m^3 after disinfection ([4]; object: visor): 360 germs/m^3
- Number of germs/m^3 after sterilization ([4]; object: visor): germ-free
